# Assay results published in patent US9718772B2, “Crystalline (3Z,5S)-5-(hydroxymethyl)-1-[(2′-methyl-1,1′-biphenyl-4-yl)carbonyl]pyrrolidin-3-one O-methyloxime, and methods of using the same” (ObsEva SA, priority 2014, dated 2017).
# “Also recorded” adds a separate entry of the source.
# Key:
# Assay type in all cases: physicochemical
# [1] = Comparative stability study: slurries stirred in pH 7 phosphate buffer (USP) at 25° C., observation and XRPD; details: for XRPD pattern of solids after stirring in pH 7 buffer: stirred 24 hours at 25° C., solids air dried overnight (FIG. 4, FIG. 5)
# Description: Slurries of crystalline (3Z,5S)-5-(hydroxymethyl)-1-[(2′-methyl-1,1′-biphenyl-4-yl)carbonyl]pyrrolidin-3-one O-methyloxime and amorphous (3Z,5S)-5-(hydroxymethyl)-1-[(2′-methyl-1,1′-biphenyl-4-yl)carbonyl]pyrrolidin-3-one O-methyloxime were prepared by weighing directly into vials 100 mg of crystalline or amorphous material, About 3 mL of pH 7 phosphate buffer USP was added to each sample. Samples of each of the slurries were stirred in pH 7 phosphate buffer (USP) at 25° C. for 24 hours. At the end of 24 hours, the solvent was removed from the sample by pipetting out and solids allowed to air dry in the fumehood overnight. Solids were then submitted for XRPD analysis. Both the samples first appeared as white powders. Pictures of the samples were taken at time points corresponding to 0.5 min, 15 min, 1 hour, 3 hours and 24 hours after adding the pH 7 phosphate buffer.
# [2] = Solid stress experiments (humidity, temperature, pressure, grinding, milling; XRPD)
# Description: Solid stress experiments were conducted on crystalline (3Z,5S)-5-(hydroxymethyl)-1-[(2′-methyl-1,1′-biphenyl-4-yl)carbonyl]pyrrolidin-3-one O-methyloxime and amorphous (3Z,5S)-5-(hydroxymethyl)-1-[(2′-methyl-1,1′-biphenyl-4-yl)carbonyl]pyrrolidin-3-one O-methyloxime and the results shown below in Tables 8 and 9. […] Stressing at 97% RH for the same time caused the material to deliquesce.
# [3] = MB (moisture balance) of the crystalline compound from ethyl acetate; details: crystallized from ethyl acetate
# Description: Ethyl acetate was added to amorphous (3Z,5S)-5-(hydroxymethyl)-1-[(2′-methyl-1,1′-biphenyl-4-yl)carbonyl]pyrrolidin-3-one O-methyloxime. The suspension was sonicated in ambient bath tor 60 minutes to provide a clear solution that was further sonicated and cooled over 10 minutes. The clear solution was placed in the freezer for 4 days. The solvent was decanted and the solid was washed with hexane, then dried under nitrogen flow for 30 minutes. The resulting solid was analyzed by XRPD and confirmed to be crystalline (3Z,5S)-5-(hydroxymethyl)-1-[(2′-methyl-1,1′-biphenyl-4-yl)carbonyl]pyrrolidin-3-one O-methyloxime. FIGS. 7 and 9 are the DSC and TGA curves, respectively, obtained front testing this sample.
# [4] = Comparative stability study: slurries stirred in pH 7 phosphate buffer (USP) at 25° C., observation and XRPD; details: in pH 7 phosphate buffer at 25° C., T = 5 min
# [5] = Vacuum-drying of the crystalline compound, XRPD comparison (FIG. 2); details: vacuum-drying at about 45° C. for about 65 hours; crystallized from diethyl ether
# Description: “After crystallization” means after preparation of the solid and drying at ambient temperature to about 45° C.
# 23 mg of the solid was then further vacuum-dried at 45° C. for an additional 65 hours. The resulting solid was analyzed by XRPD and confirmed to be the crystalline compound.
# [6] = 75% RH, amorphous starting material
# [7] = 10,000 psi, 1 minute, crystallized from Diethyl Ether
# [8] = Ether stress, solid in solvent at ambient, 3 days (slurry)
smiles,measurement,setting,value
"CO/N=C1/C[C@@H](CO)N(C(=O)c2ccc(-c3ccccc3C)cc2)C1 [(3Z,5S)-5-(hydroxymethyl)-1-[(2′-methyl-1,1′-biphenyl-4-yl)carbonyl]pyrrolidin-3-one O-methyloxime]",Observation of sample,"[1]; Before adding buffer, listed as Amorphous form",White power
same,Observation of sample,"[1]; Before adding buffer, listed as Crystalline compound",White powder
same,Observation of sample,"[1]; in pH 7 phosphate buffer at 25° C., T = 0, listed as Crystalline compound",White powder dispersed
same,Observation of sample,"[1]; in pH 7 phosphate buffer at 25° C., T = 15 min, listed as Amorphous (3Z,5S)-5-(hydroxymethyl)-1-[(2-methyl-1,1′-biphenyl-4-yl)carbonyl]pyr",opaque sticky material
same,Observation of sample,"[1]; in pH 7 phosphate buffer at 25° C., T = 15 min, listed as Amorphous form",Opaque sticky round lump
same,Observation of sample,"[1]; in pH 7 phosphate buffer at 25° C., T = 15 min, listed as Crystalline compound",White powder dispersed
same,Observation of sample,"[1]; in pH 7 phosphate buffer at 25° C., T = 1 hour, listed as Amorphous form",Opaque sticky round lump
same,Observation of sample,"[1]; in pH 7 phosphate buffer at 25° C., T = 1 hour, listed as Crystalline compound","White solid round lump,"
same,Observation of sample,"[1]; in pH 7 phosphate buffer at 25° C., T = 1 hour, listed as crystalline (3Z,5S)-5-(hydroxymethyl)-1-[(2′-methyl-1,1-biphenyl-4-yl)carbonyl]p",white sticky material
same,Observation of sample,"[1]; in pH 7 phosphate buffer at 25° C., T = 3 hours, listed as Amorphous form",Opaque sticky material
same,Observation of sample,"[1]; in pH 7 phosphate buffer at 25° C., T = 3 hours, listed as Crystalline compound",White sticky material
same,Observation of sample,"[1]; in pH 7 phosphate buffer at 25° C., T = 24 hours, listed as Amorphous form",Opaque sticky material
same,Observation of sample,"[1]; in pH 7 phosphate buffer at 25° C., T = 24 hours, listed as Crystalline compound",White sticky material
same,XRPD pattern of solids after stirring in pH 7 buffer,[1],peaks consistent with those seen in the powder pattern of crystalline
same,XRPD pattern of solids after stirring in pH 7 buffer,"[1]; listed as amorphous (3Z,5S)-5-(hydroxymethyl)-1-[(2-methyl-1,1′-biphenyl-4-yl)carbonyl]pyr",presence of amorphous phase
same,Habit/Description,"[2]; 40° C., 10 days",Rounded chunks
same,XRPD Result,"[2]; 40° C., 10 days",Amorphous
same,Habit/Description,"[2]; 40° C./75% RH, 1 day",Oil drops
same,XRPD Result,"[2]; 1 minute grind (by hand), crystallized from Diethyl Ether",mixture of the crystalline compound and the amorphous compound; also recorded: Crystalline form
same,Habit/Description,"[2]; 1 minute grind, crystallized from Diethyl Ether",White Solid
same,Habit/Description,"[2]; 70° C., 1 day",Oil puddle
same,Habit/Description,"[2]; 70° C., 6 days","Rounded chunks, clear oil drops"
same,XRPD Result,"[2]; 70° C., 6 days",Amorphous
same,XRPD Result,"[2]; 75% RH, 3 days, crystallized from Ethyl Acetate",remained unchanged; also recorded: Crystalline form
same,weight gain,"[2]; 75% RH, after 1 day",2.5% weight gain after 1 day
same,weight gain,"[2]; 75% RH, after 5 days",3.7% weight gain after 5 days
same,weight gain,"[2]; 75% RH, after 12 days",6.6% weight gain after 12 days
same,weight gain,"[2]; 75% RH, after 20 days",2.9% weight gain after 20 days
same,Habit/Description,[2]; [6],"White jagged flakes, chunks, no"
same,XRPD Result,[2]; [6],Amorphous
same,Habit/Description,"[2]; 97% RH, 3 days, amorphous starting material",Deliquesced
same,Habit/Description,"[2]; 97% RH, 3 days, crystallized from Ethyl Acetate",Deliquesced
same,Habit/Description,[2]; [7],White Solid
same,XRPD Result,[2]; [7],remained in crystalline form
same,Habit/Description,[2]; [8],"White chunks, bits"
same,XRPD Result,[2]; [8],Amorphous
same,Habit/Description,"[2]; Milling with 10μL toluene, after 10 minutes",Stick gum like solid after 10
same,Habit/Description,"[2]; Milling with 10μL toluene, by 70 minutes","minutes, sticky film by 70 minutes"
same,Habit/Description,"[2]; Milling with 25 μL water, ~10 minutes",Sticky gum-like solid
same,Habit/Description,"[2]; Solid wet with ethyl ether, after 1 day at ambient","Chunks, few areas of birefringence"
same,Habit/Description,"[2]; Solid wet with ethyl ether, after 5 days ambient","Chunks, few areas with extinguish"
same,weight gain from 5% RH to 95% RH,[3]; MB (moisture balance),3.25% weight gain from 5% RH to 95% RH
same,weight loss from 95% RH to 5% RH,[3]; MB (moisture balance),1.44% weight loss from 95% RH to 5% RH
same,weight loss upon equilibration at 5% RH,[3]; MB (moisture balance),0.20% weight loss upon equilibration at 5% RH
same,Post MB XRPD,[3]; after moisture balance,Crystalline form and Amorphous
same,Observation of sample,[4]; listed as Amorphous form,Thick white sticky mass
same,Observation of sample,[4]; listed as Crystalline compound,White powder dispersed
same,solid form by XRPD after vacuum-drying,[5],does not change the solid form
